Data on one molecule can be found in article PMC2477761, “D-glucose Stimulates the Na^+/K^+ Pump in Mouse Pancreatic Islet Cells” (International journal of experimental diabetes research, 2000).

In this experiment the test system is T1, Na+/K+ ATPase (islet homogenate, ob/ob mice).
T1 construct: gene Atp1a1
The following applies: read-out: apparent K 0.5; 135 mM Na+, 20 mM K+, Mg2+, pH 7.4, 37 C, 10 min; deoxycholate-treated homogenate; 1 mM ouabain difference.

With `Nc1ncnc2c1ncn2[C@@H]1O[C@H](COP(=O)(O)OP(=O)(O)OP(=O)(O)O)[C@@H](O)[C@H]1O` [ATP], the Km was found to be 500 µM.
